Measured values as given in ChEMBL document CHEMBL1139501, “Synthesis and biological evaluation of benzodioxanylpiperazine derivatives as potent serotonin 5-HT(1A) antagonists: the discovery of Lecozotan” (J Med Chem, 2005).

Experiments:
[1] = target: T1, 5-hydroxytryptamine receptor 1A (Homo sapiens, UniProt P08908); test: biochemical
T1 sequence (P08908 whole entry): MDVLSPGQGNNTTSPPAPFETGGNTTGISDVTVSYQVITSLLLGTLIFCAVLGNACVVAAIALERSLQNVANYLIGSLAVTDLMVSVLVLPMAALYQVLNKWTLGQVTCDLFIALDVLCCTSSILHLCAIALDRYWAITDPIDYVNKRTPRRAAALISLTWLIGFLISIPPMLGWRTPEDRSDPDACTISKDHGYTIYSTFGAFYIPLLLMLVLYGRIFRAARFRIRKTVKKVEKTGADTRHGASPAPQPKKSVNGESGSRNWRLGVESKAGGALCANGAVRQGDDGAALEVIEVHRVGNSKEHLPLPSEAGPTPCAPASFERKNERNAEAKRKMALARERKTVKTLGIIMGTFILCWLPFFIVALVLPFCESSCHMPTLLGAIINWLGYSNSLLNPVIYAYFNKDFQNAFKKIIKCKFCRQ

[2] = target: T1, 5-hydroxytryptamine receptor 1A
[3] = target: T1, 5-hydroxytryptamine receptor 1A; remark: listed apart in the source
[4] = system: Rattus norvegicus; test: Effective dose on the 8-OH-DPAT induced response at 3 mg/kg sc in presence of 8-OH-DPAT (Effective dose value for 8-OH-DPAT = 0.32); format: functional; details: route subcutaneous
[5] = system: Rattus norvegicus; test: Effective dose on the 8-OH-DPAT induced response at 3 mg/kg sc in presence of 8-OH-DPAT (Effective dose value for 8-OH-DPAT = 0.17); format: functional; details: route subcutaneous
[6] = system: Rattus norvegicus; test: Effective dose on the 8-OH-DPAT induced response at 3 mg/kg sc in presence of 8-OH-DPAT (Effective dose value for 8-OH-DPAT = 0.18); format: functional; details: route subcutaneous
[7] = system: Rattus norvegicus; test: Effective dose on the 8-OH-DPAT induced response at 3 mg/kg sc in presence of 8-OH-DPAT (Effective dose value for 8-OH-DPAT = 0.25); format: functional; details: route subcutaneous

C[C@@H](CN(C(=O)c1ccc(C#N)cc1)c1ccccn1)N1CCN(c2cccc3c2OCCO3)CC1
Ki [1]: 9.2 nM

C[C@H](CN(C(=O)c1ccc(C(F)(F)F)cc1)c1ccccn1)N1CCN(c2cccc3c2OCCO3)CC1
IC50 [2]: 32.1 nM
IC50 [3]: 6.2 nM
Ki [1]: 1.9 nM
ED50 [4]: 0.94 mg/kg

C[C@H](CN(C(=O)c1ccc(Cl)cc1)c1ccccn1)N1CCN(c2cccc3c2OCCO3)CC1
ED50 [5]: 1.82 mg/kg

C[C@H](CN(C(=O)c1ccc(C#N)cc1)c1ccccn1)N1CCN(c2cccc3c2OCCO3)CC1 [LECOZOTAN]
IC50 [2]: 42 nM
ED50 [6]: 3.68 mg/kg

C[C@H](CN(C(=O)c1ccc([N+](=O)[O-])cc1)c1ccccn1)N1CCN(c2cccc3c2OCCO3)CC1
IC50 [2]: 23.2 nM
IC50 [3]: 4.3 nM
Ki [1]: 1 nM
ED50 [7]: 3.19 mg/kg

C[C@@H](CN(C(=O)c1ccc([N+](=O)[O-])cc1)c1ccccn1)N1CCN(c2cccc3c2OCCO3)CC1
Ki [1]: 3.4 nM

C[C@@H](CN(C(=O)c1ccc(C(F)(F)F)cc1)c1ccccn1)N1CCN(c2cccc3c2OCCO3)CC1
Ki [1]: 8.6 nM
